Laboratory results reported in paper PMC7918733, “Biological Profiling of Semisynthetic C19-Functionalized Ferruginol and Sugiol Analogues” (Antibiotics, 2021).

test system: L. infantum amastigotes; test: Intracellular amastigote assay (fluorometric test); format: cell-based; settings: Leishmania infantum, read-out: L. infantum IC50 ± SD

SMILES | IC50 [µM]
CC(C)c1cc2c(cc1O)C1(C)CCCC(C)(C(=O)O)C1CC2=O (single isomer, unassigned; (+)) [Compound 8a, (+)-4-epi-liquiditerpenoic acid A] | 20.1 ± 2
COC(=O)[C@@]1(C)CCC[C@]2(C)c3cc(C(C)=O)c(C(C)C)cc3CC[C@@H]12 [Compound 9] | 22.7 ± 5.9
COC(=O)[C@@]1(C)CCC[C@]2(C)c3cc(O)c(C(C)C)cc3C(=O)C[C@@H]12 [Compound 16] | 16.5 ± 4.6

test system: L. amazonensis amastigotes; test: Intracellular amastigote assay (fluorometric test); format: cell-based; settings: Leishmania amazonensis, read-out: L. amazonensis IC50 ± SD

SMILES | IC50 [µM]
CC(C)c1cc2c(cc1O)C1(C)CCCC(C)(C(=O)O)C1CC2=O (single isomer, unassigned; (+)) [Compound 8a, (+)-4-epi-liquiditerpenoic acid A] | 21.4 ± 2.3
COC(=O)[C@@]1(C)CCC[C@]2(C)c3cc(C(C)=O)c(C(C)C)cc3CC[C@@H]12 [Compound 9] | 30.3 ± 1.2
COC(=O)[C@@]1(C)CCC[C@]2(C)c3cc(O)c(C(C)C)cc3C(=O)C[C@@H]12 [Compound 16] | 16.1 ± 2

test system: P. falciparum 3D7 strain; test: Antiplasmodial DNA stain-based growth assay; format: cell-based; settings: Plasmodium falciparum, 3D7; chloroquine-sensitive strain; 72 h incubation; read-out: P. falciparum 3D7 EC50
Procedure: (§1) Assays were performed by using previously described DNA stain-based assay and methods, including cytotoxicity assays.

SMILES | EC50 [µM]
CC(C)c1cc2c(cc1O)C1(C)CCCC(C)(C(=O)O)C1CC2=O (single isomer, unassigned; (+)) [Compound 8a, (+)-4-epi-liquiditerpenoic acid A] | > 15
COC(=O)[C@@]1(C)CCC[C@]2(C)c3cc(C(C)=O)c(C(C)C)cc3CC[C@@H]12 [Compound 9] | 12.8
COC(=O)[C@@]1(C)CCC[C@]2(C)c3cc(O)c(C(C)C)cc3C(=O)C[C@@H]12 [Compound 16] | 4.8

test system: P. falciparum K1 strain; test: Antiplasmodial DNA stain-based growth assay; format: cell-based; settings: Plasmodium falciparum, K1; chloroquine-resistant strain; 72 h incubation; read-out: P. falciparum K1 EC50
Procedure: as §1

SMILES | EC50 [µM]
CC(C)c1cc2c(cc1O)C1(C)CCCC(C)(C(=O)O)C1CC2=O (single isomer, unassigned; (+)) [Compound 8a, (+)-4-epi-liquiditerpenoic acid A] | > 15
COC(=O)[C@@]1(C)CCC[C@]2(C)c3cc(C(C)=O)c(C(C)C)cc3CC[C@@H]12 [Compound 9] | 12.6
COC(=O)[C@@]1(C)CCC[C@]2(C)c3cc(O)c(C(C)C)cc3C(=O)C[C@@H]12 [Compound 16] | 3.9

test system: BJ; test: Cytotoxicity on mammalian cell lines; format: cell-based; settings: Homo sapiens, read-out: BJ EC50
Procedure: as §1

SMILES | EC50 [µM]
CC(C)c1cc2c(cc1O)C1(C)CCCC(C)(C(=O)O)C1CC2=O (single isomer, unassigned; (+)) [Compound 8a, (+)-4-epi-liquiditerpenoic acid A] | > 25
COC(=O)[C@@]1(C)CCC[C@]2(C)c3cc(C(C)=O)c(C(C)C)cc3CC[C@@H]12 [Compound 9] | > 25
COC(=O)[C@@]1(C)CCC[C@]2(C)c3cc(O)c(C(C)C)cc3C(=O)C[C@@H]12 [Compound 16] | > 25

test system: HEK293; test: Cytotoxicity on mammalian cell lines; format: cell-based; settings: Homo sapiens, HEK293; read-out: HEK293 EC50
Procedure: as §1

SMILES | EC50 [µM]
CC(C)c1cc2c(cc1O)C1(C)CCCC(C)(C(=O)O)C1CC2=O (single isomer, unassigned; (+)) [Compound 8a, (+)-4-epi-liquiditerpenoic acid A] | > 25
COC(=O)[C@@]1(C)CCC[C@]2(C)c3cc(C(C)=O)c(C(C)C)cc3CC[C@@H]12 [Compound 9] | > 25
COC(=O)[C@@]1(C)CCC[C@]2(C)c3cc(O)c(C(C)C)cc3C(=O)C[C@@H]12 [Compound 16] | > 25

test system: HepG2; test: Cytotoxicity on mammalian cell lines; format: cell-based; settings: Homo sapiens, HepG2; read-out: HepG2 EC50
Procedure: as §1

SMILES | EC50 [µM]
CC(C)c1cc2c(cc1O)C1(C)CCCC(C)(C(=O)O)C1CC2=O (single isomer, unassigned; (+)) [Compound 8a, (+)-4-epi-liquiditerpenoic acid A] | > 25
COC(=O)[C@@]1(C)CCC[C@]2(C)c3cc(C(C)=O)c(C(C)C)cc3CC[C@@H]12 [Compound 9] | > 25
COC(=O)[C@@]1(C)CCC[C@]2(C)c3cc(O)c(C(C)C)cc3C(=O)C[C@@H]12 [Compound 16] | > 25

test system: RAJI; test: Cytotoxicity on mammalian cell lines; format: cell-based; settings: Homo sapiens, read-out: RAJI EC50
Procedure: as §1

SMILES | EC50 [µM]
CC(C)c1cc2c(cc1O)C1(C)CCCC(C)(C(=O)O)C1CC2=O (single isomer, unassigned; (+)) [Compound 8a, (+)-4-epi-liquiditerpenoic acid A] | > 25
COC(=O)[C@@]1(C)CCC[C@]2(C)c3cc(C(C)=O)c(C(C)C)cc3CC[C@@H]12 [Compound 9] | > 25
COC(=O)[C@@]1(C)CCC[C@]2(C)c3cc(O)c(C(C)C)cc3C(=O)C[C@@H]12 [Compound 16] | > 25

test system: A549 (Lung); test: Antiproliferative SRB assay; format: cell-based, human; settings: Homo sapiens, A549, mean ± SD of at least two experiments
Procedure: (§2) Cells, cultures and the activity test of abietane analogs followed reported methods. The SRB assay was performed as previously described, and the antiproliferative activity was given as GI50 values, which were calculated according to NCI formulas.

SMILES | GI50 [µM]
CC(C)c1cc2c(cc1O)C1(C)CCCC(C)(C(=O)O)C1CC2=O (single isomer, unassigned; (+)) [Compound 8a, (+)-4-epi-liquiditerpenoic acid A] | 12 ± 2.9
COC(=O)[C@@]1(C)CCC[C@]2(C)c3cc(C(C)=O)c(C(C)C)cc3CC[C@@H]12 [Compound 9] | 15 ± 7
COC(=O)[C@@]1(C)CCC[C@]2(C)c3cc(O)c(C(C)C)cc3C(=O)C[C@@H]12 [Compound 16] | 11 ± 6.9

test system: SW1573 (Lung); test: Antiproliferative SRB assay; format: cell-based, human; settings: Homo sapiens, SW1573, mean ± SD of at least two experiments
Procedure: as §2

SMILES | GI50 [µM]
CC(C)c1cc2c(cc1O)C1(C)CCCC(C)(C(=O)O)C1CC2=O (single isomer, unassigned; (+)) [Compound 8a, (+)-4-epi-liquiditerpenoic acid A] | 41 ± 17
COC(=O)[C@@]1(C)CCC[C@]2(C)c3cc(C(C)=O)c(C(C)C)cc3CC[C@@H]12 [Compound 9] | 25 ± 11
COC(=O)[C@@]1(C)CCC[C@]2(C)c3cc(O)c(C(C)C)cc3C(=O)C[C@@H]12 [Compound 16] | > 100

test system: WiDr (Colon); test: Antiproliferative SRB assay; format: cell-based, human; settings: Homo sapiens, WiDr, mean ± SD of at least two experiments
Procedure: as §2

SMILES | GI50 [µM]
CC(C)c1cc2c(cc1O)C1(C)CCCC(C)(C(=O)O)C1CC2=O (single isomer, unassigned; (+)) [Compound 8a, (+)-4-epi-liquiditerpenoic acid A] | 33 ± 15
COC(=O)[C@@]1(C)CCC[C@]2(C)c3cc(C(C)=O)c(C(C)C)cc3CC[C@@H]12 [Compound 9] | 15 ± 2.1
COC(=O)[C@@]1(C)CCC[C@]2(C)c3cc(O)c(C(C)C)cc3C(=O)C[C@@H]12 [Compound 16] | 6.1 ± 4.2

test system: HBL-100 (Breast); test: Antiproliferative SRB assay; format: cell-based; settings: Homo sapiens, mean ± SD of at least two experiments
Procedure: as §2

SMILES | GI50 [µM]
CC(C)c1cc2c(cc1O)C1(C)CCCC(C)(C(=O)O)C1CC2=O (single isomer, unassigned; (+)) [Compound 8a, (+)-4-epi-liquiditerpenoic acid A] | 39 ± 14
COC(=O)[C@@]1(C)CCC[C@]2(C)c3cc(C(C)=O)c(C(C)C)cc3CC[C@@H]12 [Compound 9] | 14 ± 2.1
COC(=O)[C@@]1(C)CCC[C@]2(C)c3cc(O)c(C(C)C)cc3C(=O)C[C@@H]12 [Compound 16] | 65 ± 4.9

test system: HeLa (Cervix); test: Antiproliferative SRB assay; format: cell-based; settings: Homo sapiens, mean ± SD of at least two experiments
Procedure: as §2

SMILES | GI50 [µM]
CC(C)c1cc2c(cc1O)C1(C)CCCC(C)(C(=O)O)C1CC2=O (single isomer, unassigned; (+)) [Compound 8a, (+)-4-epi-liquiditerpenoic acid A] | 12 ± 3.8
COC(=O)[C@@]1(C)CCC[C@]2(C)c3cc(C(C)=O)c(C(C)C)cc3CC[C@@H]12 [Compound 9] | 15 ± 4.1
COC(=O)[C@@]1(C)CCC[C@]2(C)c3cc(O)c(C(C)C)cc3C(=O)C[C@@H]12 [Compound 16] | 18 ± 1.7

test system: T-47D (Breast); test: Antiproliferative SRB assay; format: cell-based; settings: Homo sapiens, T47D, mean ± SD of at least two experiments
Procedure: as §2

SMILES | GI50 [µM]
CC(C)c1cc2c(cc1O)C1(C)CCCC(C)(C(=O)O)C1CC2=O (single isomer, unassigned; (+)) [Compound 8a, (+)-4-epi-liquiditerpenoic acid A] | 31 ± 12
COC(=O)[C@@]1(C)CCC[C@]2(C)c3cc(C(C)=O)c(C(C)C)cc3CC[C@@H]12 [Compound 9] | 14 ± 1
COC(=O)[C@@]1(C)CCC[C@]2(C)c3cc(O)c(C(C)C)cc3C(=O)C[C@@H]12 [Compound 16] | 47 ± 25

test system: not listed separately; test: in vitro; settings: mouse, Macrophages J774 CC50
Procedure: (§3) The compounds were additionally studied in a panel of mammalian cell lines to determine cytotoxicity.
(§4) The parasites, culture procedure and the activity of functionalized abietane analogs on Leishmania promastigotes were performed according to the method previously reported by us [28], while the intracellular amastigote assay was performed on L. amazonensis and L. infantum according to the fluorometric test [29]. The J774 cell culture and the cytotoxicity assay was carried out according to our previously described method [30].

SMILES | CC50 [µM]
CC(C)c1cc2c(cc1O)C1(C)CCCC(C)(C(=O)O)C1CC2=O (single isomer, unassigned; (+)) [Compound 8a, (+)-4-epi-liquiditerpenoic acid A] | > 200
COC(=O)[C@@]1(C)CCC[C@]2(C)c3cc(O)c(C(C)C)cc3C(=O)C[C@@H]12 [Compound 16] | > 200

test system: not listed separately; test: Cytotoxicity assay on J774 macrophages; settings: mouse, Macrophages J774 CC50, 50% reduction of cell viability
Procedure: as §3, §4

SMILES | CC50 [µM]
COC(=O)[C@@]1(C)CCC[C@]2(C)c3cc(C(C)=O)c(C(C)C)cc3CC[C@@H]12 [Compound 9] | > 200

test system: L. infantum promastigotes; test: Antileishmanial in vitro promastigote assay; settings: Leishmania infantum, read-out: L. infantum IC50 ± SD
Procedure: as §3, §4

SMILES | IC50 [µM]
CC(C)c1cc2c(cc1O)C1(C)CCCC(C)(C(=O)O)C1CC2=O (single isomer, unassigned; (+)) [Compound 8a, (+)-4-epi-liquiditerpenoic acid A] | 100 ± 20
COC(=O)[C@@]1(C)CCC[C@]2(C)c3cc(C(C)=O)c(C(C)C)cc3CC[C@@H]12 [Compound 9] | 20.3 ± 4.6
COC(=O)[C@@]1(C)CCC[C@]2(C)c3cc(O)c(C(C)C)cc3C(=O)C[C@@H]12 [Compound 16] | 10.1 ± 1.4

test system: L. donovani promastigotes; test: Antileishmanial in vitro promastigote assay; settings: Leishmania donovani, read-out: L. donovani IC50 ± SD
Procedure: as §3, §4

SMILES | IC50 [µM]
CC(C)c1cc2c(cc1O)C1(C)CCCC(C)(C(=O)O)C1CC2=O (single isomer, unassigned; (+)) [Compound 8a, (+)-4-epi-liquiditerpenoic acid A] | 84.4 ± 31.6
COC(=O)[C@@]1(C)CCC[C@]2(C)c3cc(C(C)=O)c(C(C)C)cc3CC[C@@H]12 [Compound 9] | 8.9 ± 2
COC(=O)[C@@]1(C)CCC[C@]2(C)c3cc(O)c(C(C)C)cc3C(=O)C[C@@H]12 [Compound 16] | 11.8 ± 0.8

test system: L. amazonensis promastigotes; test: Antileishmanial in vitro promastigote assay; settings: Leishmania amazonensis, read-out: L. amazonensis IC50 ± SD

SMILES | IC50 [µM]
CC(C)c1cc2c(cc1O)C1(C)CCCC(C)(C(=O)O)C1CC2=O (single isomer, unassigned; (+)) [Compound 8a, (+)-4-epi-liquiditerpenoic acid A] | 94.5 ± 6.5
COC(=O)[C@@]1(C)CCC[C@]2(C)c3cc(C(C)=O)c(C(C)C)cc3CC[C@@H]12 [Compound 9] | 14.1 ± 1.4
COC(=O)[C@@]1(C)CCC[C@]2(C)c3cc(O)c(C(C)C)cc3C(=O)C[C@@H]12 [Compound 16] | 8.5 ± 0.3

test system: L. guyanensis promastigotes; test: Antileishmanial in vitro promastigote assay; settings: Leishmania guyanensis, read-out: L. guyanensis IC50 ± SD
Procedure: as §3, §4

SMILES | IC50 [µM]
CC(C)c1cc2c(cc1O)C1(C)CCCC(C)(C(=O)O)C1CC2=O (single isomer, unassigned; (+)) [Compound 8a, (+)-4-epi-liquiditerpenoic acid A] | 3 ± 0.9
COC(=O)[C@@]1(C)CCC[C@]2(C)c3cc(C(C)=O)c(C(C)C)cc3CC[C@@H]12 [Compound 9] | 18.7 ± 0.8
COC(=O)[C@@]1(C)CCC[C@]2(C)c3cc(O)c(C(C)C)cc3C(=O)C[C@@H]12 [Compound 16] | 5.6 ± 0.6

target: GABAA receptor subtype (α1β2γ2S) (Homo sapiens, UniProt P14867+P18507+P47870); test: Two-microelectrode voltage-clamp in Xenopus laevis oocytes; settings: read-out: IGABA Potentiation of 10 µM (%)
Sequence (P14867 28-456): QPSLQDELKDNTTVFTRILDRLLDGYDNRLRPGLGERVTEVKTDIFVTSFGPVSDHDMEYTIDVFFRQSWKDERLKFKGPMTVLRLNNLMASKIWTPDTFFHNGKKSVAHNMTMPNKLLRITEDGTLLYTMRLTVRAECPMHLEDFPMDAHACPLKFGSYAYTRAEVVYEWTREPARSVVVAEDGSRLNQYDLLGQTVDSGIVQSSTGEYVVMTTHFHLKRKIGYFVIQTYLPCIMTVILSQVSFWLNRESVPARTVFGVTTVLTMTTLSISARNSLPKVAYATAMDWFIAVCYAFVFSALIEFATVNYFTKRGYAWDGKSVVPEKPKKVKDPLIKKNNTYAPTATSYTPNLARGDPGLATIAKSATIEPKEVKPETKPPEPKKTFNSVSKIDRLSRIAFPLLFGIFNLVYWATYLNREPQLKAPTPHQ
Sequence (P47870 26-512): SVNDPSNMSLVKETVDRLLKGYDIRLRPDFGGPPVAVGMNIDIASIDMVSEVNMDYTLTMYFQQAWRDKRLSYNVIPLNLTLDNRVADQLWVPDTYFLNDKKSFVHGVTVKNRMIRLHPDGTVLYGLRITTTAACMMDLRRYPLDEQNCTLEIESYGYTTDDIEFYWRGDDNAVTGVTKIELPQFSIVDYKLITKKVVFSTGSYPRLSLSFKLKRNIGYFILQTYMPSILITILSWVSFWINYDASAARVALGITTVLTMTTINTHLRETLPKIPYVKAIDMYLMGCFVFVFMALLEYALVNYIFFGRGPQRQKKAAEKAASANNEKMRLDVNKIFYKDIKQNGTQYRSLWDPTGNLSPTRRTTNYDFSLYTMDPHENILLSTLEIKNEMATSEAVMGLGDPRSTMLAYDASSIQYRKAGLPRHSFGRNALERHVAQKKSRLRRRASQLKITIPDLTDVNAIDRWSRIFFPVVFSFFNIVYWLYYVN
Sequence (P18507 40-467 isoform P18507-1 limits assumed): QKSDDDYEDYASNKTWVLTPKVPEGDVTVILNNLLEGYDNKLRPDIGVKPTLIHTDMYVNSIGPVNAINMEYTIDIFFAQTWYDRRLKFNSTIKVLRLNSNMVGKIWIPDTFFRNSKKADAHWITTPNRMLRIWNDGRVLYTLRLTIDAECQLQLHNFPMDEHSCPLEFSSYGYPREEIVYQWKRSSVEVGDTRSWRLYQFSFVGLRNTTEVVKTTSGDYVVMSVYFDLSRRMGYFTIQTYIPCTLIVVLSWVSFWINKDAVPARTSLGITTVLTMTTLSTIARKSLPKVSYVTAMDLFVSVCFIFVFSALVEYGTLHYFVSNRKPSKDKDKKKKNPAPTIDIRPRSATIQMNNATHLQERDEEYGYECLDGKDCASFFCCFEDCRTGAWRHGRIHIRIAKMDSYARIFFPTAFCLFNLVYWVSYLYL
Procedure: All molecules were tested at concentrations of 10, 100 μM and compared with dehydroabietic acid (DHA) (3) as a reference [16].

SMILES | activation at 10 µM [%]
CC(C)c1cc2c(cc1O)C1(C)CCCC(C)(C(=O)O)C1CC2=O (single isomer, unassigned; (+)) [Compound 8a, (+)-4-epi-liquiditerpenoic acid A] | -8 ± 1
COC(=O)[C@@]1(C)CCC[C@]2(C)c3cc(O)c(C(C)C)cc3C(=O)C[C@@H]12 [Compound 16] | 5 ± 4

same assay, conditions: read-out: IGABA Potentiation of 100 µM (%)

SMILES | activation at 100 µM [%]
CC(C)c1cc2c(cc1O)C1(C)CCCC(C)(C(=O)O)C1CC2=O (single isomer, unassigned; (+)) [Compound 8a, (+)-4-epi-liquiditerpenoic acid A] | -8 ± 3
COC(=O)[C@@]1(C)CCC[C@]2(C)c3cc(O)c(C(C)C)cc3C(=O)C[C@@H]12 [Compound 16] | 104 ± 26
